The test system of one data set is PA PAO1, PA 27853. As to the kind of experiment: Checkerboard assay, chelator with antibiotic (FIC). The data set is classed as cell-based, P. aeruginosa. An excerpt: Drug interactions were initially evaluated with the “checkerboard” microdilution design, which provided a matrix of all drug combinations assayed in terms of fractions of the previously determined MIC. The checkerboard microdilution design is described in R. J. Tallarida, “Drug Synergism: Its Detection and Applications,” Journal of Pharmacology and Experimental Therapeutics, 865-872 (2001); and in R. L. White, et al., (1996), supra. FIGS. 39A and 39B show the wellplates having different concentrations of iron chelator and antibiotic, as labeled along the x-axis and y-axis.
The checkerboard assay was used to asses other combinations of iron chelators and antibiotics. The fractional inhibitory concentration index (FIC), which was calculated as follows: FIC=(MIC A in combination/MIC A)+(MIC B in combination/MIC B). Interaction was defined as synergistic if the FIC was <1.0, preferably <0.5, no interaction if the FIC was >1.0 and <4.0, and antagonistic if the FIC was >4.0.
The assay was run against the multi-drug resistant bacterial species AB 19606, AB 17978, KP ndm, PA PAO1, PA 27853, EC 35718, and EC 43888. Blank spaces indicate concentrations not tested. […] Against the species PA PAO1 and PA 27853, all the antibiotics except for Ami.

For data set [1], the system named is A. baumannii strain AB19606. The data set is described as follows: Growth (OD600) with chelator, Rifampin or both. The data set is classed as cell-based. Particulars: 1.5×MIC Apo6619 in combination with ¾×MIC Rifampicin. As for the experimental part:
A. baumannii strain AB19606 was grown in CAMHB and challenged with 1.5×MIC compound 4 (Var) or 1.5×MIC Triapine (Tri) with or without 0.75×MIC Rifampin (Rif). Growth was estimated by absorbance at 600 nm (y-axis) at 0 or 24 hours.

Data set [2] concerns five clinical isolates of A. baumannii and AB19606. As to the kind of experiment: Growth (OD600) of six A. baumannii strains with VK28 in low-iron M9 media. The settings on record: 200 μM VK28 after 4 hr of growth, 24 hr. The data set is classed as cell-based. As for the experimental part:
Five clinical isolates of A. baumannii were obtained from Walter Reed Army Medical Center (WRAMC) and compared to the laboratory strain AB19606 from the ATCC. Strains were challenged with either 0 μM or 200 μM VK28 in low-iron M9 media after 4 hr of growth. Growth was estimated by absorbance at 600 nm every 4 hr for 24 hr. Dashed lines represent the same strains treated with 200 μM VK28.

The nature of data set [3]: Maximum systemic dose without adverse side-effects, extrapolated. Particulars: human; systemic delivery; based on mouse and rat results. As for the experimental part: The iron chelator is employed in an amount effective for the treatment and/or prevention of bacterial infection. The effective dosage seen in vitro is up to 2 mM based on molarity or up to 1 mg/mL. 2 mM or 1 mg/mL is an extremely high dosage for translating into in vivo. Previous experiments by Varinel Inc. have shown toxicity with VK28 at 30 mg/kg in a mouse or 70 mg/kg in a rat when delivered systemically/intravenously. […] Higher doses are suitable for topical administration. The iron chelator can present in an amount that is up to about 10% by weight, alternatively up to about 20% by weight of the topical composition. In some embodiments, the topical composition can comprise about 0.1% to about 20% of at least one iron chelator, alternatively about 1% to about 20%, alternatively about 5% to about 20%, alternatively about 5% to about 10%, and include, but are not limited to, for example, about 1%, about 2%, about 3%, about 4%, about 5%, about 6%, about 7%, about 8%, about 9%, about 10%, about 12%, about 15%, about 20%, and includes percentages and ranges there between and in increments of about 0.1%, about 0.25%, about 0.5%, about 1% and the like. Determination of an effective amount of VK28, or derivative thereof, to employ is well within the skill of one having ordinary skill in the art having knowledge of the teachings set forth herein.

The next data set relates to Escherichia coli. As to the kind of experiment: Growth (OD600) with VK28 in M9 media with magnesium / calcium. It is filed as cell-based. Particulars: 24 hours. As for the experimental part: Escherichia coli was grown similar to as described in Example 19 in M9 media containing 2 mM MgSO4 for 24 hours in the presence of 0 μg/ml, 50 μg/ml, 100 μg/ml, or 200 μg/ml VK28. The OD600 was measured at 0, 4, and 24 hour and the results are shown in the time-kill curves of FIG. 18.
(§1) In this example, strains of MR Staphylococcus aureus (MRSA), Acinetobacter baumannii (Acinetobacter), Escherichia coli (E. coli), and Pseudomonas aeruginosa (Pseudomonas) were grown in M9 media in the presence of 2 mM MgSO4 and 1.35 mM CaCl2 for 24 hours in the presence or absence of 0 μg/ml, 50 μg/ml, 100 μg/ml, or 200 μg/ml of VK28. The OD600 was measured at 24 hour and the results are shown in the bar graph of FIG. 21.

The next data set relates to Acinetobacter baumannii. The description is as above. The settings on record: 24 hours. It is filed as cell-based. As for the experimental part: Acinetobacter baumannii was grown similar to as described in Example 21 in M9 media containing 2 mM MgSO4 for 24 hours in the presence of 0 μg/ml, 50 μg/ml, 100 μg/ml, or 200 μg/ml VK28. The OD600 was measured at 0, 4, and 24 hour and the results are shown in the time-kill curves of FIG. 19.
as §1

The subject of data set [4] is Tetracycline-resistant A. baumannii. The data set is described as follows: Growth (OD600) with VK28, tetracycline or both. It is filed as cell-based. An excerpt: Growth was estimated by absorbance at 600 nm at 24 hr. (y-axis).
The subject of a further data set is Pseudomonas aeruginosa. The data set is described as follows: Growth (OD600) with VK28 in M9 media with magnesium / calcium. The data set is classed as cell-based. The settings on record: 24 hours. As to the method:
Pseudomonas aeruginosa was grown similar to as described in Example 21 in M9 media containing 2 mM MgSO4 for 24 hours in the presence of 0 μg/ml, 50 μg/ml, 100 μg/ml, or 200 μg/ml VK28. The OD600 was measured at 0, 4, and 24 hour and the results are shown in the time-kill curves of FIG. 20.
as §1

The mark [5] stands for this setting: M9 with 2 mM MgSO4, 50-200 μg/ml VK28.
[6] abbreviates: M9 with 2 mM MgSO4 and 1.35 mM CaCl2.

Consider `Cc1c(O)c(=O)ccn1C` [ApoL1, 3-hydroxy-1,2-dimethyl-4(1H)-pyridone], for which the FIC in the data set with PA PAO1, PA 27853 (PA 27853, in combination with Amikacin) was determined as 1.25; with PA PAO1, PA 27853 (PA 27853, in combination with Cefotaxine) it was 0.75; with PA PAO1, PA 27853 (PA 27853, in combination with Colisitin), 0.75; in the data set on PA PAO1, PA 27853 (PA 27853, in combination with Doxycycline) it was 0.75; with PA PAO1, PA 27853 (PA 27853, in combination with Rifampin), 0.75; with PA PAO1, PA 27853 (PA PAO1, in combination with Cefotaxine), 0.75. In addition, the FIC in the data set with PA PAO1, PA 27853 (PA PAO1, in combination with Colisitin) worked out at 0.75; in the data set on PA PAO1, PA 27853 (PA PAO1, in combination with Doxycycline), 0.75; in the data set with PA PAO1, PA 27853 (PA PAO1, in combination with Rifampin) it was 0.75.
On to `CNC(=O)c1c(O)c(=O)cc(C)n1C1CC1` [Apo6619, 1-cyclopropyl-3-hydroxy-6-methyl-4-oxo-1,4-dihydro-pyridine-2-carboxylic acid methylamide], for which the “growth (absorbance at 600 nm) at 24 hour” value in data set [1] was “synergistic effect in inhibiting growth of AB19606”.
`OCCN1CCN(Cc2ccc(O)c3ncccc23)CC1` [VK28, 5-(4-(2-hydroxyethyl)piperazin-1-ylmethyl)-8-hydroxyquinoline]: in data set [2], the “OD600 values (growth)” value is given as “greatly decreases the OD600 values”. Further, in data set [3], the “maximum dose without adverse side-effects” value is reported as “approximately 60 mg/kg”. Moreover, the “inhibition of growth (OD600)” value was “inhibition of growth of E. coli is not reduced in the presence of magnesium and calcium” with Escherichia coli (setting [5]); “inhibition of growth of a number of strains of bacteria is not reduced in the presence of magnesium and calcium” in the data set with Escherichia coli (setting [6]); “inhibition of growth of Acinetobacter baumannii is not reduced in the presence of magnesium” in the data set with Acinetobacter baumannii (setting [5]); “inhibition of growth of a number of strains of bacteria is not reduced in the presence of magnesium and calcium” in the data set on Acinetobacter baumannii (setting [6]); “inhibition of growth of Pseudomonas aeruginosa is not reduced in the presence of magnesium” with Pseudomonas aeruginosa (setting [5]); “inhibition of growth of a number of strains of bacteria is not reduced in the presence of magnesium and calcium” in the data set with Pseudomonas aeruginosa (setting [6]). Besides, the “reduction of bacteria (absorbance at 600 nm at 24 hr)” value in data set [4] (400 μM Vk28 in combination with 16 ug/mL tetracycline) is “the reduction in bacteria was greater than the added reductions from separate administration of tetracycline and VK28”; in data set [4] (single agent: 400 μM Vk28 or 16 ug/mL tetracycline, low-iron M9) it was “significant reduction in bacteria”.

The values above are taken from patent US10064858B2, “Methods and compositions for treating bacterial infections with iron chelators” (THE UNITED STATES OF AMERICA, AS REPRESENTED BY THE …, priority 2011, dated 2018).
